The values that follow come from patent US20040009956A1, “Inhibition of protein tyrosine phosphatases and SH2 domains by a neutral phosphotyrosine mimetic” (priority 2002, published 2004).

Molecules are shown by their SMILES. Several values for one entry are separate records, joined by “and”; a condition that tells them apart may be missing. Identical values can stand only once. Like-named read-outs stand apart in the source and are kept apart here.

Holding throughout (type): biochemical
The target in one experiment is T1, VHR (Homo sapiens, UniProt P51452).
T1 construct: made in house; host or cells: Escherichia coli
As to the kind of experiment: PTP inhibition assay (pNPP hydrolysis), dual-specificity phosphatase VHR. As for the experimental part:
(§1) PTP Inhibition Assays. Stock solutions of inhibitors were prepared in dimethyl sulfoxide (DMSO) and their concentrations were calculated from the known inhibitor masses and solvent volumes. A typical reaction (total volume 1 mL) contained 50 mM HEPES (pH 7.4), 1 mM EDTA, 1 mM tris(carboxyethyl)phosphine (TCEP), 50 mM NaCl, 5% (v/v) DMSO, 0.1-0.2 μM PTP, and 0-2000 μM inhibitor. After incubation of the enzyme with the inhibitor for 1 h at room temperature, the reaction was initiated by the addition of 1.0 mM p-nitrophenyl phosphate (pNPP). The reaction progress was monitored at 405 nm on a Perkin-Elmer UV-Vis spectrophotometer. The IC50 values were determined by plotting the remaining activity as a function of inhibitor concentration, and the K1* values were obtained by fitting the data to the Michaelis-Menten equation. To determine the K1 value, the reaction was initiated by addition of enzyme (0.2 μM) into the above reaction mixture, which also contained 1.0 mM pNPP. The reaction was monitored continuously on the UV-Vis spectrophotometer and the initial reaction rates (<15 s) were fitted to the Michaelis-Menten equation.

For the next experiment, the target named is T2, PTP1B (Homo sapiens, UniProt P18031).
T2 construct: made in house; host or cells: Escherichia coli
T2 sequence (P18031 1-435): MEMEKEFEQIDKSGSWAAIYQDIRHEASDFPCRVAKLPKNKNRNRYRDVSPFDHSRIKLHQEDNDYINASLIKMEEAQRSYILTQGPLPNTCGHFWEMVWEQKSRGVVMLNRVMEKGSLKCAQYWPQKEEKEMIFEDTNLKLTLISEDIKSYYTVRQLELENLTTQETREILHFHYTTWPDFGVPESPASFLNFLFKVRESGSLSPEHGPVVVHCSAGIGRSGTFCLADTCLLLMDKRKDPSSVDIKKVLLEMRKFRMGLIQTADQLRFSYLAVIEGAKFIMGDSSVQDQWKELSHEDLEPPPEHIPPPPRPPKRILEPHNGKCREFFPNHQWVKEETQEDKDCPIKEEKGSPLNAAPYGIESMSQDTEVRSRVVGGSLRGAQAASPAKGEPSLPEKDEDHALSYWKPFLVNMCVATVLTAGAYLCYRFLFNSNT
As to the kind of experiment: PTP inhibition assay (pNPP hydrolysis), PTP1B. As for the experimental part:
as §1
To determine the rate constant κ6, the enzyme (1.0 μM) was incubated with 50-100 μM inhibitor in 100 μL of the above reaction buffer for 3 h at room temperature. The mixture was rapidly diluted into 900 μL of the same reaction buffer containing 1.0 mM pNPP (without inhibitor). Reactivation of PTP activity was monitored at 405 nm and the progress curves were fit to the equation
where νs is the final steady-state velocity. The rate constant κ5 was calculated using the equation
Inactivation of Inhibitor Cinn-GEE by Cysteamine. Cinn-GEE (1 mM) was incubated with 100 mM cysteamine hydrochloride (which had been neutralized by the addition of 1.0 equivalent of NaOH) in 100 μL of a 97:3 DMSO/H2O mixture for 24 h. The treated inhibitor was then used in inhibition assays as described above. As a control, inhibition assay also performed with the same amount of cysteamine hydrochloride/NaOH solution.

The next experiment addresses T3, SHP-1 (Homo sapiens, UniProt P29350).
T3 construct: The catalytic domain of SHP-1, SHP-1(ΔSH2), was purified from a recombinant Escherichia coli strain; made in house; host or cells: Escherichia coli
As to the kind of experiment: PTP inhibition assay (pNPP hydrolysis), catalytic domain of SHP-1, SHP-1(ΔSH2). As for the experimental part:
as §1

[1] abbreviates: 1 h preincubation with inhibitor, 1.0 mM pNPP, pH 7.4.
The mark [2] stands for this setting: slow-binding inhibition, 1 h preincubation, 1.0 mM pNPP, read-out: KI* (overall equilibrium inhibition constant).

T1 sequence (P51452 whole entry, species assumed): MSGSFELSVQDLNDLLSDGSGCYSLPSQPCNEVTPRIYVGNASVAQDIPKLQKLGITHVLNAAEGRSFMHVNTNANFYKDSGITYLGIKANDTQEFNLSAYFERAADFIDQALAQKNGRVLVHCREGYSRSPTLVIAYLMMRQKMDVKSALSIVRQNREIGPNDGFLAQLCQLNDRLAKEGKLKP
T3 sequence (P29350 214-595): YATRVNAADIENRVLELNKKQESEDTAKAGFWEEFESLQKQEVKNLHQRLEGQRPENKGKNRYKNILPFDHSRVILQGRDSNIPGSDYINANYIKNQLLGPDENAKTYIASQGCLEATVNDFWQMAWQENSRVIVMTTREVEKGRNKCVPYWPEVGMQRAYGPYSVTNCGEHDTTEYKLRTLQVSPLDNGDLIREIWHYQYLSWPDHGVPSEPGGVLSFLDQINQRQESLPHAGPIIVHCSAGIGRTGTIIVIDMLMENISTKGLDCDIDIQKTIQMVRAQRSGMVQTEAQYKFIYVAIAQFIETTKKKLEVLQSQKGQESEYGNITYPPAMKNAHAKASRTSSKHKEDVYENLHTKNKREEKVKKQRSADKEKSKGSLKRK

Take `O=Cc1ccccc1` [Compound 1, Benzaldehyde, reference compound]: the “Inhibitory activity (in words)” value on VHR, on PTP1B and on SHP-1 was “least active” each time.
On to `O=CC=Cc1ccc(C(=O)O)cc1` [Compound 3, 4-(3-Oxo-1-propenyl)benzoic acid], for which the IC50 (commonly the concentration that inhibits the measured activity by half) against VHR (setting [1]) was greater than 2000 µM; against PTP1B (setting [1]), 970 µM; against SHP-1 (setting [1]) it was 230 µM. The “Inhibition against VHR” value on VHR (up to 2 mM) is “no significant inhibition”.
With `NC(=O)C(CCC(=O)O)NC(=O)C(CCC(=O)O)NC(=O)CNC(=O)c1ccc(C=CC=O)cc1` (stereo not drawn) [Compound 5, N-[4-(3-Oxo-1-propenyl)benzoyl]-Gly-Glu-Glu-NH2], the Ki at VHR (setting [2]) was 288 µM; at PTP1B (initial reaction rates (<15 s), reaction initiated by enzyme, read-out: K1, equilibrium inhibition constant for the initial complex E·I), 550 µM; at PTP1B (setting [2]), 5.4 µM and 5.42 µM; at SHP-1 (setting [2]) it was 10.7 µM. In addition, on PTP1B (E·I* complex preformed 3 h, diluted 10-fold into 1.0 mM pNPP), the “κ6, rate for reactivation of PTP1B” value turned out to be 0.56 min⁻¹. In addition, the “κ5, rate for conversion of noncovalent E·I complex to covalent complex” value on PTP1B (calculated from K1*=K1κ6/(κ5+κ6)) was 56 min⁻¹. Besides, the “Inhibitory activity against PTP1B after treatment of inhibitor with cysteamine” value at PTP1B (prior treatment with excess cysteamine) is reported as “abolished”.
